The values below come from US10759831B2, “Peptide compound, production method therefor, and use thereof” (iNtRON Biotechnology, Inc., priority 2014, dated 2020).

Where two headings read alike, the source gives them in different places.

In series [1] the test system is colon cancer cell line HCT116. The series is described as follows: SRB cell viability assay, colon cancer cell line HCT116. As to conditions: Homo sapiens, HCT-116. The class given is cell-based. The method, then:
(§1) Regarding a lung cancer cell line A549 (Korean Cell line Bank), a colon cancer cell line HCT116 (ATCC), a stomach cancer cell line SNU638 (Korean Cell Line Bank), a liver cancer cell line SK-HEP-1 (Korean Cell line Bank), and a breast cancer cell line MDA-MB-231 (Korean Cell line Bank), a sulforhodamine B (SRB) assay which is a method of measuring cell viability was used for measuring apoptosis effects of Asperphenin.
(§2) In detail, 190 μl of a cell suspension at a concentration of 3.5×10^4 cells/ml was inoculated in each well of a 96-well microplate. 0.8 μM, 4 μM, 20 μM, or 100 μM of Asperphenin was added to the cell culture medium, and cultured at a temperature of 37° C. for 72 hours under the condition of 5% CO2. After incubation, 50 μl of 50% (v/v) trichloroacetic acid solution (Sigma Aldrich) was added to each well, and then, incubated at a temperature of 4° C. for 30 minutes, to thereby fix the cells thereto. The fixed cells were washed with water five times, and then, dried in the air.
(§3) Next, 80 μl of a 0.4% (w/v) SRB aqueous solution (Sigma Aldrich) containing 1% (v/v) acetic acid (DUKSAN) was added to each well, incubated at room temperature for 1 hour to stain cells therein, and the stained cells washed with water and dried. The cells were dissolved by adding 200 μl of 10 mM Tris (pH 10.0) (Sigma Aldrich) to each well, and then, the number of living cells was calculated by measuring the absorbance thereof at 515 nm. The concentration of the compound inhibiting cell growth to 50% based on the number of the living cells, i.e., 50% inhibition concentration (IC50) was calculated, and the results are shown in Table 3. Here, as a positive control, etoposide (Sigma Aldrich) was used.
From the colon cancer cell lines HCT116 (ATCC), HCT15 (Korean Cell Line Bank), LS174T (Korean Cell Line Bank), RKO(ATCC), and SW480(ATCC), cell growth inhibition concentrations (IC50, μM) were calculated as described in Example 2-1, and the results are shown in Table 4. Here, as a positive control, paclitaxel (Sigma Aldrich) was used.

Series [2] has as its system stomach cancer cell line SNU638. The series is described as follows: SRB cell viability assay, stomach cancer cell line SNU638. Format: cell-based. As to conditions: Homo sapiens, SNU-638; SNU638, 72 hours; read-out: Cell growth inhibition concentration (IC50). The method, then: as §1, §2, §3
The test system of series [3] is colon cancer cell line RKO. The series is described as follows: SRB cell viability assay, colon cancer cell line RKO. The class given is cell-based. To be noted: Homo sapiens, read-out: Growth inhibition value of cancer cell (IC50). As to the method:
as §2
Next, 80 μl of a 0.4% (w/v) SRB aqueous solution (Sigma Aldrich) containing 1% (v/v) acetic acid (DUKSAN) was added to each well, incubated at room temperature for 1 hour to stain cells therein, and the stained cells washed with water and dried. The cells were dissolved by adding 200 μl of 10 mM Tris (pH 10.0) (Sigma Aldrich) to each well, and then, the number of living cells was calculated by measuring the absorbance thereof at 515 nm. […]
From the colon cancer cell lines HCT116 (ATCC), HCT15 (Korean Cell Line Bank), LS174T (Korean Cell Line Bank), RKO(ATCC), and SW480(ATCC), cell growth inhibition concentrations (IC50, μM) were calculated as described in Example 2-1, and the results are shown in Table 4. […]

Series [4] is described as follows: Physicochemical characterization.
For series [5], the system named is breast cancer cell line MDA-MB-231. The series is described as follows: SRB cell viability assay, breast cancer cell line MDA-MB-231. The class given is cell-based. As to conditions: Homo sapiens; MDA-MB-231, 72 hours; read-out: Cell growth inhibition concentration (IC50). As to the method:
as §1, §2, §3

Another series concerns RKO cells. In words: ROS production, DCFH-DA flow cytometry. The class given is cell-based, human. As to conditions: 24 hours. As to the method:
In detail, as described in Example 2-3, Asperphenin B at the concentration of 2.5 μM, 5 μM, or 10 μM wad added to the RKO cells. Cells were collected after the RKO cells were cultured for 24 hours. In addition, a cell group in which 5 mM of N-acetylcysteine (NAC) (Sigma Aldrich), which is an antioxidant, was added to 5 μM and […] of Asperphenin B was prepared as a comparative group, whereas a cell group in which none of Asperphenin B and NAC was contained as a control.
Afterwards, 2′,7′-dichlorofluorescin diacetate (DCFH-DA) (Sigma Aldrich) having a final concentration of 20 μM was added to the cell culture medium, and then, cultured at a temperature of 37° C. for 30 minutes under the condition of 5% CO2. Cells attached to the cell medium and cells not attached to the cell medium were all collected, washed with cold PBS twice, and then, suspended again in 1 ml of PBS to measure intensity of 2′,7′-dichlorofluorescin (DCF) by using a BD FACSCalibur flow cytrometer (manufactured by BD Biosciences).
(Flow cytometry measures light scatter and fluorescence of single cells or particles in a stream.)

Series [6] concerns cell cycle-related proteins in RKO cells. In words: Immunoblotting of cell cycle-related proteins. The class given is cell-based, human. As to the method:
As described in Example 2-3, cells were obtained in a way that Asperphenin B at the concentration of 0.625 μM, 1.25 μM, 2.5 μM, 5 μM, or 10 μM was added to the RKO cells, and then, cultured for 48 hours. However, cells were obtained in a way that Asperphenin B at the concentration of 5 μM was added to the RKO cells, and then, cultured for 0 to 48 hours. Then, proteins were obtained from the obtained cells.
Regarding the expression of the cell cycle-related proteins, anti-p-cyclin B1(Ser147) antibody (Cell Signaling Technology), anti-cyclin B1 antibody (Santa Cruz), anti-p-cdc2(Tyr15) antibody (Cell Signaling Technology), anti-cdc2 antibody (Santa Cruz), and anti-β-actin antibody (Santa Cruz) were used to perform immunoblotting thereon.
A general note: A western blot detects proteins with antibodies after separation by electrophoresis.

For `CCCCCCCCC[C@@H](O)CC(=O)N[C@@H](CC(N)=O)C(=O)N[C@@H](CCC(N)=O)C(=O)N[C@H](CC(=O)c1cc(C)cc(O)c1C(=O)c1c(O)cccc1O)CC(C)C` [Asperphenin B], the IC50 in series [1] (HCT116, 72 hours, Table 3, read-out: Cell growth inhibition concentration (IC50)) was 2.6 µM; in series [1] (HCT116, Table 4, read-out: Growth inhibition value of cancer cell (IC50)), 4.05 µM; in series [2], 11.7 µM; in series [3] it was 1.17 µM; in series [5] it was 6 µM. For the same molecule, in series [4], the “Solubility in organic solvent” value is “well dissolved in a moderate organic solvent, such as methanol and acetone”. Also, the Stability entry in series [4] is given as “stable at room temperature”. Besides, the “Production of ROS relative to the control” value in the series with RKO cells was “about 2.4 times”. Also, the “Ratio of cells producing ROS” value with RKO cells (2.5 μM) was 8.14%; in the series on RKO cells (5 μM) it was 13.86%; in the series with RKO cells (5 μM Asperphenin B + 5 mM NAC), 1.41%; in the series on RKO cells (10 μM), 14.26%; in the series with RKO cells (10 μM Asperphenin B + 5 mM NAC), 2.55%. For the same molecule, the “Expression of p-cdc2 (Tyr15) protein” value in series [6] (5 μM, 0 to 48 hours, FIG. 5B) is “increased in time-dependent manner”. The “Expression of p-cyclin B1 (Ser147)” value in series [6] (5 μM, 0 to 48 hours, FIG. 5B) is listed as “highest at about 24 hours”. In addition, in series [6] (48 hours, 2.5 μM, FIG. 5A), the “Expression of non-active p-cyclin B1 (Ser147) protein” value is listed as “increased”. Besides, the “Expression of p-cyclin B1 (Ser147) protein and cyclin B1 protein” value in series [6] (48 hours, 5 μM and 10 μM, FIG. 5A) is “decreased”. In addition, in series [6] (48 hours, 0.625-10 μM, FIG. 5A), the “Expression of non-active p-cdc2 (Tyr15) protein” value is listed as “increased in a concentration-dependent manner”.
